Experimental data reported in patent US6916472B2, “PON3 and uses thereof” (Regents of the University of Michigan, priority 2000, dated 2005).

Legend:
[1] = biological target: T1, rabbit serum PON3 (Oryctolagus cuniculus, UniProt Q9BGN0); assay: Hydrolytic activity of purified rabbit serum PON3 with paraoxon, aromatic esters and lactones; assay type: biochemical; conditions: for PON3 (rate of hydrolysis of substrate) / PON3 hydrolytic activity with substrate (in words): purified rabbit serum PON3; for PON3 (rate of hydrolysis of substrate): 25° C.; for PON1/PON3 Ratio: ratio of hydrolysis rates of PON1 and PON3
T1 construct: from tissue; host or cells: rabbit serum
Procedure: (§1) Esterase activities with substrates: phenyl acetate, S-phenyl thioacetate, α-naphtyl acetate and paraoxon were measured as described by Kuo and La Du (Kuo and La Du, Drug Metab. Dispos., 23:335 [1995]; Qan et al., Drug Metab Dispos, 19:100-106 [1991]. For example, arylesterase activity is measured using a molar difference extinction coefficient (difference in extinction coefficients of phenol vs. phenol acetate) of 1,310 M^−1 cm^−1, at 270 nm with 1.0 mM phenyl acetate in 50 mM Tris/HCl (pH 8.0):1.0 mM CaCl2 buffer (Gan et al., supra). For the hydrolysis of thiophenyl acetate, the substrate is dissolved in methanol, and the reaction cuvettes contain 1.0 mM substrate in 50 mM Tris/HCl (pH 8.0):1.0 mM CaCl2 buffer. The product, thiophenol, reacts with 5,5′-dithiobis(2-nitrobenzoic acid), and activity is calculated from a molar difference extinction coefficient of 13,600 M^−1 cm^−1 at 412 nm (Augustinsson and Axenfors, Anal. Biochem., 48:428 [1972]). For the hydrolysis of α-naphtyl acetate, substrates are dissolved in ethylene glycol monomethyl ether, and the reaction cuvettes contain 0.5 mM substrate in 50 mM Tris/HCl (pH 8.0):1.0 mM CaCl2 buffer. Enzymatic activities are calculated from the molar extinction coefficients of 23,170 M^−1 cm^−1 at 235 nm. PON activity is measured with 1.0 mM paraoxon in 50 mM glycine:NaOH buffer (pH 10.5):1.0 mM CaCl2 with or without 1.0 M NaCl. Enzymatic activities were calculated from a molar extinction coefficient of 18,290 M^−1 cm^−1 at 412 nm (Gan et al., supra). All enzymatic assays are performed at 25° C. For each assay, 5 μl of purified PON (1.5-2.5 μg of enzyme protein) is added to an assay cuvette. For all substrates, one unit of enzymatic activity is defined as 1 μmol of substrate hydrolyzed/min.
(§2) Hydrolysis of aromatic lactones was monitored by the increase in UV absorbance at 270 nm (dihydrocoumarin), 274 nm (2-coumaranone), and 290 nm (homogentisic acid lactone). Lactones were purchased from Sigma. In a typical experiment a cuvette contained 1 mM substrate (from a […] stock solution, dissolved in methanol) in 50 mM Tris/HCl (pH 8.0), 1 mM CaCl2 and 5-20 μl enzyme source in a total volume of 1 ml. The molar difference extinction coefficients (difference in extinction coefficients of substrate and product) used to calculate the rate of hydrolysis were 1295, 876, and 816 M^−1 cm^−1 for dihydrocoumarin, 2-coumaranone and homogentisic acid lactone, respectively.
(§3) The hydrolysis of other lactones was followed by a calorimetric assay with phenol red (Billecke, et al., Chem Biol Interact, 119-120:251-256, [1999]). The reaction cuvette contained 1 mM substrate (from a 100 mM stock solution, dissolved in methanol) in 2 mM HEPES at starting pH 8.0, 1 mM CaCl2, 0.004% (106 μM) phenol red, 0.005% bovine albumin, and 5-20 μl enzyme solution in a total volume of 1 ml. The rate of acid production was followed by monitoring the increase in absorbance at 422 nm as the color changed from red to yellow. The rate of hydrolysis was derived from a calibration curve obtained using known amounts of HCl.
(§4) All the above assays (Sections, A, B, and C) were performed at 25° C. using a dual beam Cary 3E […] Spectrophotometer (Varian). Reference cuvettes containing the appropriate buffer plus substrate were used in each assay to correct for any spontaneous hydrolysis.

[2] = biological target: T2, rabbit serum PON1 (Oryctolagus cuniculus, UniProt P27170); assay: Hydrolytic activity of purified rabbit serum PON1 with paraoxon, aromatic esters and lactones; assay type: biochemical; conditions: 25° C.
T2 construct: PON 1 was purified further by pooling the fractions with highest arylesterase activity from a second DEAE column; from tissue; host or cells: rabbit serum
Procedure: as §1, §2, §3, §4

[3] = biological target: T3, PON3 (Oryctolagus cuniculus, UniProt Q9BGN0); assay: Hydrolysis of statin lactones by PON3; assay type: biochemical, rabbit
T3 construct: from tissue; host or cells: rabbit serum
Procedure: The hydrolysis of the statin lactones (mevastatin, lovastatin and simvastatin) was analyzed by high performance liquid chromatography (HPLC) using a Beckman System Gold HPLC with a Model 126 Programmable Solvent Module, a Model 168 Diode Array Detector set at 238 nm, a Model 7125 Rheodyne manual injector valve with a 20 μl loop, and a Beckman ODS Ultrasphere column (C 18, 250×4.6 mm, 5 μm). Lovastatin (Mevacor) and simvastatin were purchased as 20 mg tablets from Merck, from which the lactones were extracted with chloroform, evaporated to dryness and redissolved in methanol. Mevastatin was purchased from Sigma.
In a final volume of 1 ml, 10-200 μl of enzyme solution and 10 μl of substrate solution in methanol (0.5 mg/ml) were incubated at 25° C. in 50 mM Tris/HCl (pH 7.6), 1 mM CaCl2. […]
Samples were eluted isocratically at a flow rate of 1.0 ml/min with a mobile phase consisting of the following: A=acetic acid/acetonitrile/water (2:249:249, v/v/v) and B=acetonitrile, in A/B ratios of 50/50, 45/55 and 40/60 for mevastatin, lovastatin and simvastatin, respectively. […] Response factors for the acid products were calculated from the peak heights after complete alkaline hydrolysis of the lactones in 0.02 M NAOH for 2-24 hours at 25° C.

T1 sequence (Q9BGN0 2-354 limits assumed): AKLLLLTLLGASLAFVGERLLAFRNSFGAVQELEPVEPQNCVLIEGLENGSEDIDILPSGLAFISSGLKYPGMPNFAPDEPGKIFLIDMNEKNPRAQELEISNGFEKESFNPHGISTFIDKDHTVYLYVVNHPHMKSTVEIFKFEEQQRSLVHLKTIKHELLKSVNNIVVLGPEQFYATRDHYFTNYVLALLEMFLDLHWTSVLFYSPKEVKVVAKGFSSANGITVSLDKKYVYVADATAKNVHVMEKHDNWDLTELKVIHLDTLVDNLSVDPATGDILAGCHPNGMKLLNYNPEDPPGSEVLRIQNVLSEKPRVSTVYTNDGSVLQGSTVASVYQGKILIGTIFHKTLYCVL
T2 sequence (P27170 whole entry Y185T): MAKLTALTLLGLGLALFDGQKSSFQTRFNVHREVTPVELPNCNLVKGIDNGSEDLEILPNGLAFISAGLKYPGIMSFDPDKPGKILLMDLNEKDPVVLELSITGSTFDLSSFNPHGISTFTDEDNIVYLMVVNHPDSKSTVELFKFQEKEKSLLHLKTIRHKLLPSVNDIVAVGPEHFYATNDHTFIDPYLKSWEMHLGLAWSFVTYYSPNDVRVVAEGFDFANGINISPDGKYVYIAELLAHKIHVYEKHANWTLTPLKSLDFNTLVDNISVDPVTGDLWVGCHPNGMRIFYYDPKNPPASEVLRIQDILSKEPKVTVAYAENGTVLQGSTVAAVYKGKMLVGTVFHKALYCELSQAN
T3 sequence (Q9BGN0 2-354 limits assumed): as the sequence (Q9BGN0 2-354 limits assumed) above

| Molecule | PON3 (rate of hydrolysis of substrate) [1] | PON1/PON3 Ratio [1] | PON1 (rate of hydrolysis of substrate) [2] [µmol/min/mg] | PON3 hydrolytic activity with substrate (in words) [1] | hydrolysis of lactone drug by PON3 (in words) [3] |
| --- | --- | --- | --- | --- | --- |
| O=C1CCC(c2ccccc2)O1 (stereo not drawn) [γ-phenyl-γ-butyrolactone] | 20.4 µmol/min/mg | 10 | 203 | – | – |
| CC(=O)Oc1ccccc1 [Phenyl Acetate] | 1.0 µmol/min/mg | 769 | 768.7 | very poor substrates | – |
| CC(=O)Oc1ccc2ccccc2c1 [β-Naphtyl Acetate] | 4.6 µmol/min/mg | 30 | 138.8 | – | – |
| O=C1Oc2ccccc2C1Br (stereo not drawn) [α-Br-2-Coumaronone] | 2.8 µmol/min/mg | 97 | 270.1 | – | – |
| CC1=CCC(=O)O1 [α-Angelica lactone] | 3.4 µmol/min/mg | 52 | 175.1 | – | – |
| O=C1Cc2ccccc2O1 [2-Coumaronone] | 32.4 µmol/min/mg | 4.0 | 136.6 | – | – |
| CCCC1CCC(=O)O1 (stereo not drawn) [γ-Heptalactone] | 8.6 µmol/min/mg | 12 | 107 | – | – |
| CC[C@H](C)C(=O)O[C@H]1C[C@@H](C)C=C2C=C[C@H](C)[C@H](CC[C@@H]3C[C@@H](O)CC(=O)O3)[C@H]21 [lovastatin] | – | – | – | – | can also hydrolyse |
| CCCCCC1CCC(=O)O1 (stereo not drawn) [γ-Nonalactone] | 60 µmol/min/mg | 1.3 | 79.6 | – | – |
| CCCCCCC1CCC(=O)O1 (stereo not drawn) [γ-Decalactone] | 50.2 µmol/min/mg | 1.8 | 92 | – | – |
| CCCCCC1CCCC(=O)O1 (stereo not drawn) [δ-Decalactone] | 73 µmol/min/mg | 1.8 | 134.8 | – | – |
| CCCCCCCC1CCC(=O)O1 (stereo not drawn) [γ-Undecalactone] | 44.2 µmol/min/mg | 2 | 87.4 | – | – |
| CCCCCCCC1CCCC(=O)O1 (stereo not drawn) [δ-Dodecalactone] | 98.2 µmol/min/mg | 1.8 | 179.4 | – | – |
| CCOP(=O)(OCC)Oc1ccc([N+](=O)[O-])cc1 [Paraoxon] | <0.0075^1 μmol/min/mg | 638 | 4.76 | very poor substrates | – |
| C=C1CCC(=O)O1 [γ-methylene-γ-butyrolactone] | 12 µmol/min/mg | 52 | 622 | – | – |
| δ-Undecalactone | 90 µmol/min/mg | 2.1 | 186.8 | – | – |
| CC1CCC(=O)O1 (stereo not drawn) [γ-Valerolactone] | 3.0 µmol/min/mg | 26 | 78.4 | – | – |
| CCCCC1CCC(=O)O1 (stereo not drawn) [γ-Octalactone] | 29 µmol/min/mg | 3.6 | 104.5 | – | – |
| CC1CCCC(=O)O1 (stereo not drawn) [δ-Hexalactone] | 3.6 µmol/min/mg | 58 | 207 | – | – |
| CCCCC1OC(=O)CC1C (stereo not drawn) [β-methyl-γ-octalactone] | 3 µmol/min/mg | 12 | 34.8 | – | – |
| CCCCC1CCCC(=O)O1 (stereo not drawn) [δ-Nonalactone] | 44 µmol/min/mg | 3.4 | 142 | – | – |
